Results reported in paper PMC8333425, “Discovery of a dual Ras and ARF6 inhibitor from a GPCR endocytosis screen” (Nature Communications, 2021).
Values joined by “and” are separate entries in the source; they are usually repeats but may differ in a detail not shown here. Identical values can stand only once. “Also recorded” adds a separate entry of the source.

Assays:
[1] = test system: MEK1; assay: Western blot of ERK1/2 phosphorylation induced by MEK1 (MEK1-WT / MEK1-DD); format: cell-based, human
Method: HEK293SL cells (10^5 cells per well) were seeded in a poly-L-lysine-coated six-well plate and transiently transfected with 3 μg Flag-AT1R, HA-B2R or HA-β2AR and/or 500 ng Flag-MEK1-WT, Flag-MEK1-DD, Flag-BRAF-WT, Flag-BRAF-V600E, Flag-K-Ras-WT, Flag-K-Ras-G12V, HA-ARF6-WT, or HA-ARF6-T27N. Gαq/11 KO and βarr1/2 KO cells were seeded onto 100 mm dishes at a density of 10^6 cells per dish. Next day, cells were transfected with 3 μg AT1R alone or along with 500 ng of β-arrestin2 using PEI. After 18 h of transfection, cells were detached and re-seeded onto poly-L-lysine coated 12-well plates (~1.5–2 × 10^5cells/well) for subsequent experiments. Forty-eight hours post transfection, in a 37 °C water bath, cells were serum-starved for 30 min, pretreated with DMSO (0.1%) or compound 21/Rasarfin (50 µM or at indicated concentrations) for 30 min, then stimulated or not with the indicated ligand [AngII (1 µM), BK (1 µM), Iso (10 µM) or EGF (100 ng/ml)] at indicated times. Cells were put on ice, washed with PBS and solubilized in 2x laemmli buffer (250 mM Tris–HCl pH 6.8, 2% SDS (w/v), 10% glycerol (v/v), 0.01% bromophenol blue (w/v) and 5% β-mercaptoethanol (v/v)) by heating at 65 °C for 15 min. Lysates were resolved on 10 or 14% SDS-PAGE, transferred to nitrocellulose membranes and immunoblotted for p-ERK1/2, ERK1/2, p-Akt, Akt, HA, Myc, β-actin or FLAG. ImageLab 5.2 software was used to quantify the digital blots as fold of the phosphorylated protein over total protein, which were then normalized as indicated in the figure legends. Uncropped immunoblots are provided in the Source Data file.

[2] = test system: Ras; assay: GST-Raf1-RBD pull-down of AT1R-mediated Ras activation; format: cell-based, human; settings: for Ras-GTP over total Ras, GST-Raf1-RBD pull-down, AT1R: Comp 21 50 μM, individual experiments
Description: Since 21 inhibited both ERK1/2 and Akt activation by GPCRs and EGFR, we looked at a common target involved in both pathways. The small G protein Ras is an upstream regulator of both Ras-RAF-MEK-ERK and PI3K/Akt signaling pathways[35],[36]. Therefore, we explored 21’s ability to inhibit Ras activity using GST-Raf1-Ras-binding domain (RBD) in a pull-down assay. A reduction of 60% in GTP-bound Ras was noticed in pulled-down from cells treated with 21 and stimulated with either AT1R or EGFR, as compared to vehicle-treated cells (Fig. 4a, b). Complementary to this in vitro assay, we generated a Ras BRET assay, using the Raf-Ras binding domain tagged with RlucII (Raf1-RBD-RlucII) and the rGFP at the PM (rGFP-CAAX) (Supplementary Fig. 3c), to assess 21’s effects on Ras activation kinetics. […] Overexpression of either the active form of Ras (G12V) or SOS1 anchored at the PM (SOS-CAAX) produced a robust basal BRET signal that was no longer modulated by receptor activation (Supplementary Fig. 3d). […] 21’s potency to inhibit ARF6 and Ras is also consistent with its relative efficacy for inhibiting AT1R internalization and MAPK, respectively, when used at 50 μM (e.g., around 7 and 70 times the respective IC50s) (Figs. 2e and 3a). We also assessed if 21 was acting as a pan small G protein inhibitor by testing its effect on Rho and Rac/Cdc42. […] To assess Rac/Cdc42 activity, we generated a Rac/Cdc42 BRET sensor that consisted of the PAK-CRIB domain fused to RlucII (PAK-CRIB-RlucII) and the rGFP-CAAX (Supplementary Fig. 3e). PAK-CRIB, which binds to active Rac/Cdc42, was recruited to the PM upon AngII stimulation of cells and generated a robust BRET signal, which was blocked by the overexpression of the DN Rac1-T17N. Overexpression of the constitutively active Rac1-Q61L increased the basal BRET, which was no longer modulated by AT1R stimulation (Supplementary Fig. 3f).
Activation of ARF1, ARF6, Ras, and Rho were assessed by using GST pull-down assays. […] ImageLab 5.2 software was used to quantify the digital blots as fold of the amount of pulled down protein over total protein. […]

[3] = test system: HEK293 cells; settings: Barbadin 100 µM; cited from earlier work

Row | Compound | ERK1/2 activation induced by overexpression of MEK1-DD ([1]; 50 μM) | Predicted (LS) mean diff. DMSO vs. compound (Bonferroni's multiple comparisons test) ([1]; Flag-MEK1 DD) | ERK1/2 phosphorylation relative to mock (S_Fig.4c) ([1]; Flag-MEK1 DD, listed as Comp 21) | Predicted (LS) mean diff. DMSO vs. compound (Bonferroni's multiple comparisons test) ([1]; Flag-MEK1 WT) | ERK1/2 phosphorylation relative to mock (S_Fig.4c) ([1]; Flag-MEK1 WT, listed as Comp 21) | ERK1/2 phosphorylation relative to mock (S_Fig.4c) ([1]; mock) | Predicted (LS) mean diff. DMSO vs. compound (Bonferroni's multiple comparisons test) ([1]; mock) | reduction in GTP-bound Ras, AT1R-stimulated cells (pull-down) ([2]; 50 μM, compared to vehicle-treated cells) [%] | Ras-GTP over total Ras, GST-Raf1-RBD pull-down, AT1R ([2]; AngII) | Ras-GTP over total Ras, GST-Raf1-RBD pull-down, AT1R ([2]; Ctrl (no AngII)) | toxicity to HEK293 cells (flat, cobblestone appearance retained) [3]
1 | CC(C)C(=O)N1CCN(c2ccc(NC(=O)c3cc4ccccc4o3)cc2Cl)CC1 [Compound 21] | nor did it block ERK1/2 activation | 0.4193 | 4.057 and 4.133 and 4.072 and 3.9273 | 0.04596 | 1.754 and 1.134 and 1.2368 | 1 | 0 | 60 | 0.2615 and 0.2571 and 0.1009 and 0.2909 and 0.08351 | 0.2526 and 0.08678 and 0.1353 and 0.1074 and 0.09399 | –
2 | Nn1cnc2scc(-c3ccc(Cc4ccccc4)cc3)c2c1=O [Barbadin, reference compound] | – | – | – | – | – | – | – | – | – | – | non-toxic to cells; also recorded: nontoxic
